Assay results published in patent publication US8017612B2, “Piperazine compound and use thereof as a HCV polymerase inhibitor” (priority 2006, dated 2011).

Tests used:
[1] = target: T1, HCV polymerase (NS5B) type 1b (Hepatitis C virus genotype 1b, UniProt P26663); assay: Assay of enzyme (HCV polymerase) inhibitory activity, type 1b enzyme; assay type: biochemical, HCV BK strain (type 1b)
T1 construct: a region encoding NS5B (J Virol 1991 March, 65(3), 1105-13, 544 amino acids after deletion of 47 amino acids on the C-terminal); 6xHis (C); made in house; host or cells: Escherichia coli
Excerpt: (§1) The evaluation of the HCV polymerase inhibitory activity of the compound of the present invention is explained in the following. This polymerase is an enzyme coded for by the non-structural protein region called NS5B on the genome RNA of HCV.
(§2) i) Preparation of Enzyme (HCV Polymerase)
(§3) Using, as a template, a cDNA clone corresponding to the full length genome RNA of HCV BK strain (type 1b) obtained from the blood of a patient with hepatitis C, a region encoding NS5B (J Virol 1991 March, 65(3), 1105-13, 544 amino acids after deletion of 47 amino acids on the C-terminal) was amplified by PCR. The objective gene was prepared by adding a 6 His tag {base pair encoding 6 continuous histidine (His)} to the 3′ end thereof and transformed to Escherichia coli. The Escherichia coli capable of producing the objective protein was cultured. The obtained cells were suspended in a buffer solution and crushed in a microfluidizer. The supernatant was obtained by centrifugation and applied to various column chromatographys {mono-S, Sephacryl S-200 (Pharmacia)}, inclusive of metal chelate chromatography, to give a standard enzyme product.
(§4) ii) Synthesis of Substrate RNA
(§5) Using a synthetic primer designed based on the sequence of HCV genomic 3′ untranslated region, a DNA fragment (148 bp) containing polyU and 3′X sequence was entirely synthesized and cloned into plasmid pBluescript SK II(+) (Stratagene). The cDNA encoding full length NS5B, which was prepared in i) above, was digested with restriction enzyme KpnI to give a cDNA fragment containing the nucleotide sequence of from the restriction enzyme cleavage site to the termination codon. This cDNA fragment was inserted into the upstream of 3′ untranslated region of the DNA in pBluescript SK II(+) and ligated. The about 450 bp inserted DNA sequence was used as a template in the preparation of substrate RNA. This plasmid was cleaved immediately after the 3′X sequence, linearized and purified by phenol-chloroform treatment and ethanol precipitation to give DNA.
(§6) RNA was synthesized (37° C., 4 hr) by run-off method using this purified DNA as a template, a promoter of pBluescript SK II(+), MEGAscript RNA synthesis kit (Ambion) and T7 RNA polymerase. DNase I was added and the mixture was incubated for 1 hr. The template DNA was removed by decomposition to give a crude RNA product. This crude product was treated with phenol-chloroform and purified by ethanol precipitation to give the objective substrate RNA.
(§7) This RNA was applied to urea denaturation polyacrylamide gel electrophoresis to confirm the quality thereof and preserved at −80° C.
(§8) iii) Assay of Enzyme (HCV Polymerase) inhibitory activity
(§9) A test substance (compound of the present invention) and a reaction mixture (30 μl) having the following composition were reacted at 25° C. for 60 min.
(§10) 10% Trichloroacetic acid and 1% sodium pyrophosphate solution (150 μl) at 4° C. was added to this reaction mixture to stop the reaction. The reaction mixture was left standing at 4° C. for 15 min to insolubilize RNA. This RNA was trapped on a glass filter (PerkinElmer, GF/B) upon filtration by suction. This filter was washed with a solution containing 1% trichloroacetic acid and 0.1% sodium pyrophosphate, washed with 90% ethanol and dried. A liquid scintillation cocktail (PerkinElmer) was added and the radioactivity of RNA synthesized by the enzyme reaction was measured on a liquid scintillation counter.
The HCV polymerase inhibitory activity (IC50) of the compound of the present invention was calculated from the values of radioactivity of the enzyme reaction with and without the test substance.
Reaction mixture: HCV polymerase (type 1b 0.5 μg/ml or type 1a 1.5 μg/m) obtained in i), substrate RNA (5 μg/ml) obtained in ii), ATP (50 μM), GTP (50 μM), CTP (50 μM), UTP (2 μM), [5,6-^3H]UTP (30-60 Ci/mmol (Amersham Biosciences), 1 μCi) 20 mM Tris-HCl (pH 7.5), EDTA (1 mM), MgCl2 (5 mM), NaCl (50 mM), DTT (1 mM), BSA (0.01%)

[2] = target: T2, HCV polymerase (NS5B) type 1a (Hepatitis C virus genotype 1a, UniProt P26664); assay: Assay of enzyme (HCV polymerase) inhibitory activity, type 1a enzyme; assay type: biochemical, HCV type 1a (cloned from the blood of patients)
T2 construct: made in house; host or cells: Escherichia coli (by the 'similar method' of the 1b enzyme)
Excerpt: as §1, §2, §3
Standard enzyme products for type 1a (cloned from the blood of patients) were also obtained by a similar method.
as §4, §5, §6, §7, §8, §9, §10
The HCV polymerase inhibitory activity (IC50) of the compound of the present invention was calculated from the values of radioactivity of the enzyme reaction with and without the test substance. […]

[3] = HCV polymerase inhibitory activity IC50, 1b, type 1b enzyme
[4] = HCV polymerase inhibitory activity IC50, 1a, type 1a enzyme
[5] = HCV polymerase inhibitory activity (IC50), 1b, type 1b enzyme 0.5 μg/ml, 25° C., 60 min
[6] = HCV polymerase inhibitory activity (IC50), 1a, type 1a enzyme 1.5 μg/ml, 25° C., 60 min

Compound	IC50 [1, 3]	IC50 [2, 4]	IC50 [1, 5]	IC50 [2, 6]
CCC(F)(F)c1ccc(CNC(=O)[C@H]2CN(C(=O)/C=C/C(=O)O)CCN2S(=O)(=O)c2ccc(OC(F)(F)F)cc2)cc1 [Example 667, (E)-4-[(R)-3-[4-(1,1-difluoro-propyl)-benzylcarbamoyl]-4-(4-trifluoromethoxy-benzenesulfonyl)-piperazin-1-yl]-4-oxo-but-2-enoic acid]	0.1 to 1 µM	> 1 µM		
Cc1nc(N2CCN(S(=O)(=O)c3ccc(OC(F)(F)F)cc3)[C@@H](C(=O)NCc3ccc(N4CCCC4)cc3)C2)sc1C(=O)O [Example 416, 4-methyl-2-[(R)-3-(4-pyrrolidin-1-yl-benzylcarbamoyl)-4-(4-trifluoromethoxy-benzenesulfonyl)-piperazin-1-yl]-thiazole-5-carboxylic acid]			< 0.1 µM	0.1 to 1 µM
CCC(F)(F)c1ccc(CNC(=O)[C@H]2CN(C(=O)Cc3nnn(C)n3)CCN2S(=O)(=O)c2ccc(OC(F)(F)F)cc2)cc1 [Example 518, (R)-4-[2-(2-methyl-2H-tetrazol-5-yl)-acetyl]-1-(4-trifluoromethoxy-benzenesulfonyl)-piperazine-2-carboxylic acid 4-(1,1-difluoro-propyl)-benzylamide]			< 0.1 µM	< 0.1 µM
O=C(NCc1ccc(OC(F)(F)F)cc1)[C@H]1CN(c2nc3nc[nH]c(=O)c3s2)CCN1S(=O)(=O)c1ccc(OC(F)(F)F)cc1 [Example 784, (R)-4-(7-oxo-6,7-dihydro-thiazolo[4,5-d]pyrimidin-2-yl)-1-(4-trifluoromethoxy-benzenesulfonyl)-piperazine-2-carboxylic acid 4-trifluoromethoxy-benzylamide]	< 0.1 µM	< 0.1 µM		
COc1ccc(CCNC(=O)[C@H]2CN(C(C)=O)CCN2S(=O)(=O)c2ccc(C(C)C)cc2)cc1 [Example 392, (R)-4-acetyl-1-(4-isopropyl-benzenesulfonyl)-piperazine-2-carboxylic acid [2-(4-methoxy-phenyl)-ethyl]-amide]			> 1 µM	> 1 µM
O=C(NCc1ccc(OC(F)(F)F)cc1)[C@H]1CN(c2nc3cn[nH]c(=O)c3s2)CCN1S(=O)(=O)c1ccc(OC(F)(F)F)cc1 [Example 805, (R)-4-(7-oxo-6,7-dihydrothiazolo[4,5-d]pyridazin-2-yl)-1-(4-trifluoromethoxy-benzenesulfonyl)-piperazine-2-carboxylic acid 4-trifluoromethoxy-benzylamide]	< 0.1 µM	< 0.1 µM		
O=C(NCc1ccc(OC(F)(F)F)cc1)[C@H]1CN(c2cnc3ncccc3n2)CCN1S(=O)(=O)c1ccc(OC(F)(F)F)cc1 [Example 769, (R)-4-pyrido[2,3-b]pyrazin-2-yl-1-(4-trifluoromethoxy-benzenesulfonyl)-piperazine-2-carboxylic acid 4-trifluoromethoxy-benzylamide]	< 0.1 µM	< 0.1 µM		
CCc1ccc(CNC(=O)[C@H]2CN(C(C)=O)CCN2S(=O)(=O)c2ccc(C(C)C)cc2)c(C)c1 [Example 321, (R)-4-acetyl-1-(4-isopropyl-benzenesulfonyl)-piperazine-2-carboxylic acid 4-ethyl-2-methyl-benzylamide]			< 0.1 µM	< 0.1 µM
CC(C)(C)c1ncc2sc(N3CCN(S(=O)(=O)c4ccc(OC(F)(F)F)cc4)[C@@H](C(=O)NCc4ccc(OC(F)(F)F)cc4)C3)nc2n1 [Example 1024, (R)-4-(5-tert-butyl-thiazolo[4,5-d]pyrimidin-2-yl)-1-(4-trifluoromethoxy-benzenesulfonyl)-piperazine-2-carboxylic acid 4-trifluoromethoxy-benzylamide]	< 0.1 µM	< 0.1 µM		
CCC(F)(F)c1ccc(CNC(=O)[C@H]2CN(C(=O)Nc3ccnc(OC)c3)CCN2S(=O)(=O)c2ccc(OC(F)(F)F)cc2)cc1 [Example 490, (R)-4-(4-trifluoromethoxy-benzenesulfonyl)-piperazine-1,3-dicarboxylic acid 3-[4-(1,1-difluoro-propyl)-benzylamide] 1-[(2-methoxy-pyridin-4-yl)-amide]]			0.1 to 1 µM	< 0.1 µM
CC(C)(C)c1ccc(CNC(=O)[C@H]2CN(c3nc4cc[nH]c(=O)c4s3)CCN2S(=O)(=O)c2ccc(OC(F)(F)F)cc2)cc1 [Example 597, (R)-4-(4-oxo-4,5-dihydro-thiazolo[5,4-c]pyridin-2-yl)-1-(4-trifluoromethoxy-benzenesulfonyl)-piperazine-2-carboxylic acid 4-tert-butyl-benzylamide]			< 0.1 µM	< 0.1 µM
CN(C)c1ccc(CNC(=O)[C@H]2CN(C(=O)CN3CCCC3)CCN2S(=O)(=O)c2ccc(I)cc2)cc1 [Example 159, (R)-1-(4-iodo-benzenesulfonyl)-4-(2-pyrrolidin-1-yl-acetyl)-piperazine-2-carboxylic acid 4-dimethylamino-benzylamide]			> 1 µM	> 1 µM
CCCN(CCC)CC(=O)N1CCN(S(=O)(=O)c2ccc(I)cc2)C(C(=O)NCc2ccc(N(C)C)cc2)C1 (stereo not shown) [Example 110, 4-(2-dipropylamino-acetyl)-1-(4-iodo-benzenesulfonyl)-piperazine-2-carboxylic acid 4-dimethylamino-benzylamide]			> 1 µM	> 1 µM
CC(C)c1ccc(S(=O)(=O)N2CCN(C(=O)CCO)CC2C(=O)NCc2ccc(C(F)(F)F)cc2)cc1 (stereo not shown) [Example 58, 4-(3-hydroxy-propionyl)-1-(4-isopropyl-benzenesulfonyl)-piperazine-2-carboxylic acid 4-trifluoromethyl-benzylamide]			> 1 µM	> 1 µM
CC(=O)c1sc(N2CCN(S(=O)(=O)c3ccc(OC(F)(F)F)cc3)[C@@H](C(=O)NCc3ccc(OC(F)(F)F)cc3)C2)nc1C [Example 978, (R)-4-(5-acetyl-4-methyl-thiazol-2-yl)-1-(4-trifluoromethoxy-benzenesulfonyl)-piperazine-2-carboxylic acid 4-trifluoromethoxy-benzylamide]	< 0.1 µM	< 0.1 µM		
COc1ccc(CNC(=O)[C@H]2CN(c3cnc4cncnc4n3)CCN2S(=O)(=O)c2ccc(OC(F)(F)F)cc2)cc1 [Example 658, (R)-4-pteridin-7-yl-1-(4-trifluoromethoxy-benzenesulfonyl)-piperazine-2-carboxylic acid 4-methoxy-benzylamide]			< 0.1 µM	< 0.1 µM
CCC(F)(F)c1ccc(CNC(=O)[C@H]2CN(C(C)=O)CCN2S(=O)(=O)c2ccc(OC(F)(F)F)cc2)cc1 [Example 459, (R)-4-acetyl-1-(4-trifluoromethoxy-benzenesulfonyl)-piperazine-2-carboxylic acid 4-(1,1-difluoro-propyl)-benzylamide]			< 0.1 µM	< 0.1 µM
